Values joined by “and” are separate entries in the source; they are usually repeats but may differ in a detail not shown here. Equal values may be shown once.
Experiments:
Experiment in all cases: PamChip tyrosine kinase microarray
Assay type in all cases: biochemical
Conditions in all cases: 0.1 µM, HL60 lysate
Lyn (P07948) = molecular target: T1, Lyn (P07948) (Homo sapiens, UniProt P07948)
T1 construct: purchased PamGene (PamChip PTK array, Upstream Kinase Analysis)
In short: (§1)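 HL60 (AML) cell lysate was spiked with compound at 0.001, 0.01, 0.1, 1, 10 and 50 µM, or 2% v/v DMSO as control, then profiled in technical replicates on a tyrosine kinase peptide array of 196 phosphosites. Kinase activity was inferred from peptide-set changes using an upstream kinase tool.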

JAK2 (O60674) = molecular target: T2, JAK2 (O60674) (Homo sapiens, UniProt O60674)
T2 construct: purchased PamGene (PamChip PTK array, Upstream Kinase Analysis)
T2 sequence (O60674 whole entry): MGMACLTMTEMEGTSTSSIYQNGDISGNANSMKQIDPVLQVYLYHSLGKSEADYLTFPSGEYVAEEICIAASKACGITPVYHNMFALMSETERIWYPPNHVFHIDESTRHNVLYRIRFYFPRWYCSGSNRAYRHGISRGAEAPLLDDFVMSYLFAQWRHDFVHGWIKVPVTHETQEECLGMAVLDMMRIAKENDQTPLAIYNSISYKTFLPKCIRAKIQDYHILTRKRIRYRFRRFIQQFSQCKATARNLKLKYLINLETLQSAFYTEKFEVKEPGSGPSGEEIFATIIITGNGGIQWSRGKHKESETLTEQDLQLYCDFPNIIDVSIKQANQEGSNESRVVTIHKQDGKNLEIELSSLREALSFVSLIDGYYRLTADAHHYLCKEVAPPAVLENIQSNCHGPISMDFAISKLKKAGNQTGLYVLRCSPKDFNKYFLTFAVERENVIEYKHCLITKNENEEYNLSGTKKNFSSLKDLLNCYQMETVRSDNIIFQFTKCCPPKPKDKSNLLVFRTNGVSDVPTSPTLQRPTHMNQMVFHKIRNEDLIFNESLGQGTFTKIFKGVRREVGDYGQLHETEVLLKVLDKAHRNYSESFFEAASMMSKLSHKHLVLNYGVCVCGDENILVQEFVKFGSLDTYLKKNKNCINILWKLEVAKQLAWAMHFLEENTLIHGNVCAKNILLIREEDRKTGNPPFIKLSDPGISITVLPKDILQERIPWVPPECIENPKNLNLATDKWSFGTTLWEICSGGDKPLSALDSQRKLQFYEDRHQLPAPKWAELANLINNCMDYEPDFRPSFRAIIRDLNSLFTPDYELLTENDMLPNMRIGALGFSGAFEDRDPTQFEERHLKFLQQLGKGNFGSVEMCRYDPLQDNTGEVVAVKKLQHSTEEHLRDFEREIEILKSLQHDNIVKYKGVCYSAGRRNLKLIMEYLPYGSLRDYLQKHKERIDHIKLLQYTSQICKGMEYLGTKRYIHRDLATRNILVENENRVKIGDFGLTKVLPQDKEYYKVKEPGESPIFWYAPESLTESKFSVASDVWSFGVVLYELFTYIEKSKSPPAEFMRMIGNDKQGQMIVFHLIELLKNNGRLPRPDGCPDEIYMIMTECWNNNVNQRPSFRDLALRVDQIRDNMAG
In short: as §1

Fgr (P09769) = molecular target: T3, Fgr (P09769) (Homo sapiens, UniProt P09769)
T3 construct: purchased PamGene (PamChip PTK array, Upstream Kinase Analysis)
T3 sequence (P09769 whole entry): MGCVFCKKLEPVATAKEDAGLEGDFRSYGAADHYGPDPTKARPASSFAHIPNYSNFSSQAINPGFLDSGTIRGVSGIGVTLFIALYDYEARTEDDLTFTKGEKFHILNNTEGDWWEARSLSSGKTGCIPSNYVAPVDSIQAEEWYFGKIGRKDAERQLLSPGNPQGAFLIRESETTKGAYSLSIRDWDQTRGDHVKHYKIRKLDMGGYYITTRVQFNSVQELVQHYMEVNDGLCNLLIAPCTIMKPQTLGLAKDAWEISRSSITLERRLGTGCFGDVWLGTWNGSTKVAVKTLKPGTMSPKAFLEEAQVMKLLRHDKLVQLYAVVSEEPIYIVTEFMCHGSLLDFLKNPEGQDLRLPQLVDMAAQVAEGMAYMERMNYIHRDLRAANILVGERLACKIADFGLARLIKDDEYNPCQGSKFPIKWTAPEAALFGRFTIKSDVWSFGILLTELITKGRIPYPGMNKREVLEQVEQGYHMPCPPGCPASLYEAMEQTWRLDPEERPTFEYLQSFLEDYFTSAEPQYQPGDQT
In short: as §1

EGFR (P00533) = molecular target: T4, EGFR (P00533) (Homo sapiens, UniProt P00533)
T4 construct: purchased PamGene (PamChip PTK array, Upstream Kinase Analysis)
T4 sequence (P00533 25-1210): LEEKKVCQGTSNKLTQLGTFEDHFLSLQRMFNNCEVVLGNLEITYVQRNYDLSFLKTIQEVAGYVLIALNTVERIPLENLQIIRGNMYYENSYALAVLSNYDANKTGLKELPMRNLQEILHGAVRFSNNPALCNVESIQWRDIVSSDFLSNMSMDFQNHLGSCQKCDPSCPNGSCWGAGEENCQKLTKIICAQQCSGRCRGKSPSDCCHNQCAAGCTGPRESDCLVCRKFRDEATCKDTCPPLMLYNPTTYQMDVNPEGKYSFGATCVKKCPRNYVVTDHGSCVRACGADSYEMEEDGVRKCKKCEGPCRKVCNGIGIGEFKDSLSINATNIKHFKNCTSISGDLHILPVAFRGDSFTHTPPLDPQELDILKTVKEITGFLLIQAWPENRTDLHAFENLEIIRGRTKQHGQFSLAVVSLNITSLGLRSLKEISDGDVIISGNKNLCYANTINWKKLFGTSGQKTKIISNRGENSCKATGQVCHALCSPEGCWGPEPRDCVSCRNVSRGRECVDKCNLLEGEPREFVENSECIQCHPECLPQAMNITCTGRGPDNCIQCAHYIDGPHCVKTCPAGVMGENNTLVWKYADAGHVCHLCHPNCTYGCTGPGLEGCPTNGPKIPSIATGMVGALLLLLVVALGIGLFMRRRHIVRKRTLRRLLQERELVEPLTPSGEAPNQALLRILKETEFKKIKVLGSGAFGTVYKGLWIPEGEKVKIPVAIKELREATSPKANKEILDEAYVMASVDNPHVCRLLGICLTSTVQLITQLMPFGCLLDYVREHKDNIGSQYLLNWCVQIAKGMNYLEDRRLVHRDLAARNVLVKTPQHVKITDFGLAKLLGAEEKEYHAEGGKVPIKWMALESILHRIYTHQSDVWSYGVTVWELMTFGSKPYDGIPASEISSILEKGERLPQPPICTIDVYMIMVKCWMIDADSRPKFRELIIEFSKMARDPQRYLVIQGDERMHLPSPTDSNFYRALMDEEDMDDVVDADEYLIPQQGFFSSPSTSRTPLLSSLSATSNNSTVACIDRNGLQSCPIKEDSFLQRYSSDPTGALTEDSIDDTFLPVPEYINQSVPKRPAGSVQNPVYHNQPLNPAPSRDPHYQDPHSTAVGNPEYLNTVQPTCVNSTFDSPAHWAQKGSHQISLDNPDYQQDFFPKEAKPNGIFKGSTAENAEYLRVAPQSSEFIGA
In short: as §1

BTK (Q06187) = molecular target: T5, BTK (Q06187) (Homo sapiens, UniProt Q06187)
T5 construct: purchased PamGene (PamChip PTK array, Upstream Kinase Analysis)
T5 sequence (Q06187 whole entry): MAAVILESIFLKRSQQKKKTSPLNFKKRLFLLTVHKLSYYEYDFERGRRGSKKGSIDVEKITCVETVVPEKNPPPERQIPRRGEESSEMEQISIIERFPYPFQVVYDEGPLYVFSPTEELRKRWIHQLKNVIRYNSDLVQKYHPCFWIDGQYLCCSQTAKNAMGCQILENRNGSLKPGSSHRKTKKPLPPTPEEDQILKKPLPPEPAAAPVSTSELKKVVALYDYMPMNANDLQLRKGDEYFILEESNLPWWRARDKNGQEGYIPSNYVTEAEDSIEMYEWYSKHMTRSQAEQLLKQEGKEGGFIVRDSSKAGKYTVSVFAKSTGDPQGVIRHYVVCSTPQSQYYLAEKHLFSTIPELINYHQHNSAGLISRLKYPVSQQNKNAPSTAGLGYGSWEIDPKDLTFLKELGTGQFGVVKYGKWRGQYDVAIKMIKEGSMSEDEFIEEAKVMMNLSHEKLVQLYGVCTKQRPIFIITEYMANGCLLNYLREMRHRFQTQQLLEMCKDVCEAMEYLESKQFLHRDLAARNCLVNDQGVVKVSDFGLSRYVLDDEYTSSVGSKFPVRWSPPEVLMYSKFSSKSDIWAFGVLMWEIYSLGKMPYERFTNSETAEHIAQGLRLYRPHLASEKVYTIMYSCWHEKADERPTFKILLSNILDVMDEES
In short: as §1

CSK (P41240) = molecular target: T6, CSK (P41240) (Homo sapiens, UniProt P41240)
T6 construct: purchased PamGene (PamChip PTK array, Upstream Kinase Analysis)
T6 sequence (P41240 whole entry): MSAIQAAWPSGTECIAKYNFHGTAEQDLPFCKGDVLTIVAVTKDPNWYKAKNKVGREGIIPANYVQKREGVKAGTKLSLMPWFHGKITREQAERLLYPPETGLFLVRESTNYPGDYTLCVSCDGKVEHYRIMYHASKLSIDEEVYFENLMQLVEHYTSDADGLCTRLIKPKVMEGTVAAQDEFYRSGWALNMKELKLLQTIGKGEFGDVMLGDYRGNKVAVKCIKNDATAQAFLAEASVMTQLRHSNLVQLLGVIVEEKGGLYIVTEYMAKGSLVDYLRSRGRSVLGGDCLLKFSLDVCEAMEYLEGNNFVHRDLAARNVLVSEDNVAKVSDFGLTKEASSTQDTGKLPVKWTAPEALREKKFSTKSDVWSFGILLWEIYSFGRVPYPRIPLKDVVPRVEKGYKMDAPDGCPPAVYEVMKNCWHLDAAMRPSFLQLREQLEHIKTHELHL
In short: as §1

Mer (Q12866) = molecular target: T7, Mer (Q12866) (Homo sapiens, UniProt Q12866)
T7 construct: purchased PamGene (PamChip PTK array, Upstream Kinase Analysis)
T7 sequence (Q12866 21-999): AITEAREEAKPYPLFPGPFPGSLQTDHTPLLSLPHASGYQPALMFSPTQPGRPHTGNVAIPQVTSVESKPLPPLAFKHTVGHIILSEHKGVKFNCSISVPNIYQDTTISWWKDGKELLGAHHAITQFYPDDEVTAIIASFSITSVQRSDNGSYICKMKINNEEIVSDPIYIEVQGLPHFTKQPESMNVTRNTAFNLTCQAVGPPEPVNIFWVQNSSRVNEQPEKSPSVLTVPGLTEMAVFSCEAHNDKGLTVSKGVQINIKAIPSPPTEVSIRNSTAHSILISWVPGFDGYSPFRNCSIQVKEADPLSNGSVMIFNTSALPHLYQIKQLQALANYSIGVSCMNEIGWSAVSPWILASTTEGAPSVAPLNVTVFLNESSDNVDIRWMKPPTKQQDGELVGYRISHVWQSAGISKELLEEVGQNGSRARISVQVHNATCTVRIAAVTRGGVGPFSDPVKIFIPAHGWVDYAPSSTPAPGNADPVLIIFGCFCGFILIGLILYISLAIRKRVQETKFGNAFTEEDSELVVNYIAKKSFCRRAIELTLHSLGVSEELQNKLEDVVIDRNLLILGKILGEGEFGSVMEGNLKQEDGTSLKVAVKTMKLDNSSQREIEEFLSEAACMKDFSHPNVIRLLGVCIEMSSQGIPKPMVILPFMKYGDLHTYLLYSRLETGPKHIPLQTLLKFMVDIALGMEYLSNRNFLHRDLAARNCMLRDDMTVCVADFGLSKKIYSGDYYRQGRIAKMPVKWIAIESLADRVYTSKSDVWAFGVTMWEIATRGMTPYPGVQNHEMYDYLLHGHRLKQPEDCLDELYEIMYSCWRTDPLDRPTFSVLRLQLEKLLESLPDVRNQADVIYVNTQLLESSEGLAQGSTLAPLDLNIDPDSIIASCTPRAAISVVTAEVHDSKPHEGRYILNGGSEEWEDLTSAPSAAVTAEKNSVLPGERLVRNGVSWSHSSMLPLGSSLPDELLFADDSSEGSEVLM
In short: as §1

TRKC (Q16288) = molecular target: T8, TRKC (Q16288) (Homo sapiens, UniProt Q16288)
T8 construct: purchased PamGene (PamChip PTK array, Upstream Kinase Analysis)
In short: as §1

FRK (P42685) = molecular target: T9, FRK (P42685) (Homo sapiens, UniProt P42685)
T9 construct: purchased PamGene (PamChip PTK array, Upstream Kinase Analysis)
T9 sequence (P42685 whole entry): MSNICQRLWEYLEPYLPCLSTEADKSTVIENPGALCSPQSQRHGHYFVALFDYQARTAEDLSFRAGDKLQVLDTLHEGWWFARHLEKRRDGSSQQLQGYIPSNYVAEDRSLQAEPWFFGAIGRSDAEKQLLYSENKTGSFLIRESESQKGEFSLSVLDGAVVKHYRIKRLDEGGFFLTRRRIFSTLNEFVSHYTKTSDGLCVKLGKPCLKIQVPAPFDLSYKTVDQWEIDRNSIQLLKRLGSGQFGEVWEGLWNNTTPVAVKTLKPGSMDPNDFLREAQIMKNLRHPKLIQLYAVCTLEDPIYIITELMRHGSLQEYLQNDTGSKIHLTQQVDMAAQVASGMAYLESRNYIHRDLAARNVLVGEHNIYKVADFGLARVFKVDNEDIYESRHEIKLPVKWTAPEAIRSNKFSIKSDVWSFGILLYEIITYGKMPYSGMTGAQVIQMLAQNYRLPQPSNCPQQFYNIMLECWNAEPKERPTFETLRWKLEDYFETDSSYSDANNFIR
In short: as §1

T1 sequence (P07948 whole entry): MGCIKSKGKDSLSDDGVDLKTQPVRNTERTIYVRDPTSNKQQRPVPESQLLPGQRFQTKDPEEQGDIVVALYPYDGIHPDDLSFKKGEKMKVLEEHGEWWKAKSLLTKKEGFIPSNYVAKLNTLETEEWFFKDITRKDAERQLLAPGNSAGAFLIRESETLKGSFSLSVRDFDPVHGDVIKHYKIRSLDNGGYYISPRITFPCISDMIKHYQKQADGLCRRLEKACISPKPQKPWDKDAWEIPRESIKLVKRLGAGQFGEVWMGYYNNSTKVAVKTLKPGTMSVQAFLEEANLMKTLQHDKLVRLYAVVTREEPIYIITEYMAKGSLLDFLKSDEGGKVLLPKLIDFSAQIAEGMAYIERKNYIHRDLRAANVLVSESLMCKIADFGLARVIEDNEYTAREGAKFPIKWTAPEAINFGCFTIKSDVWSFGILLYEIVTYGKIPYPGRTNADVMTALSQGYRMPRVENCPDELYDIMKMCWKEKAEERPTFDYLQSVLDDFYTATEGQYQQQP

COc1ccc(/C=C2\N=C(C)N(c3ccc(CC(=O)NCc4ccccc4)cc3)C2=O)cc1 [Compound 4c, (Z)-N-Benzyl-2-(4-(4-(4-methoxybenzylidene)-2-methyl-5-oxo-4,5-dihydro-1H-imidazol-1-yl)phenyl)acetamide]
Mean Final score (Kinase score) (Lyn (P07948)): 2.229
Mean Kinase Statistic (Lyn (P07948)): -1.195
Mean Significance Score (Lyn (P07948)): 1.851
Mean Specificity Score (Lyn (P07948)): 0.3437
Mean Significance Score (JAK2 (O60674)): 2.048
Mean Specificity Score (JAK2 (O60674)): 1.216
Mean Final score (Kinase score) (JAK2 (O60674); listed as KIM-161): 3.19 and 3.191
Mean Kinase Statistic (JAK2 (O60674); listed as KIM-161): −1.43
Mean Final score (Kinase score) (Fgr (P09769)): 2.293
Mean Kinase Statistic (Fgr (P09769)): -1.161
Mean Significance Score (Fgr (P09769)): 1.8658
Mean Specificity Score (Fgr (P09769)): 0.2752
Mean Final score (Kinase score) (EGFR (P00533)): 2.116
Mean Kinase Statistic (EGFR (P00533)): -1.053
Mean Significance Score (EGFR (P00533)): 2.048
Mean Specificity Score (EGFR (P00533)): 0.03887
Mean Significance Score (BTK (Q06187)): 1.957
Mean Specificity Score (BTK (Q06187)): 0.668
Mean Final score (Kinase score) (BTK (Q06187); listed as KIM-161): 2.76 and 2.762
Mean Significance Score (CSK (P41240)): 2.048
Mean Specificity Score (CSK (P41240)): 1.0649
Mean Final score (Kinase score) (CSK (P41240); listed as KIM-161): 3.09
Mean Final score (Kinase score) (Mer (Q12866)): 2.544
Mean Kinase Statistic (Mer (Q12866)): -1.224
Mean Significance Score (Mer (Q12866)): 2.048
Mean Specificity Score (Mer (Q12866)): 0.533
Mean Final score (Kinase score) (TRKC (Q16288)): 2.207
Mean Kinase Statistic (TRKC (Q16288)): -1.079
Mean Significance Score (TRKC (Q16288)): 2.048
Mean Specificity Score (TRKC (Q16288)): 0.1464
Mean Significance Score (FRK (P42685)): 2.048
Mean Specificity Score (FRK (P42685)): 1.533
Mean Final score (Kinase score) (FRK (P42685); listed as KIM-161): 3.45 and 3.453

— paper PMC8766756, “Insights on Cancer Cell Inhibition, Subcellular Activities, and Kinase Profile of Phenylacetamides Pending 1H-Imidazol-5-One Variants” (Frontiers in Pharmacology, 2022)
